Literature values, collected in patent US7014865B1, “Natural formulation for the treatment and prevention of depression, containing St. John's Wort and derivatives of dihydro- and tetrahydrofolic acid” (Merck Patent GmbH, priority 1998, dated 2006).

Assays:
Conditions in all cases: in vitro
uptake of serotonin = test system: uptake of serotonin
uptake of dopamine = test system: uptake of dopamine
uptake of noradrenaline = test system: uptake of noradrenaline
uptake of GABA = test system: uptake of GABA
uptake of L-glutamate = test system: uptake of L-glutamate

hyperforin
potent inhibitor: inhibition of uptake of serotonin (uptake of serotonin) | inhibition of uptake of dopamine (uptake of dopamine) | inhibition of uptake of noradrenaline (uptake of noradrenaline) | inhibition of uptake of GABA (uptake of GABA) | inhibition of uptake of L-glutamate (uptake of L-glutamate)
